Assay [1] deals with Female mice of KK-Ay/TacJc1 line (diabetes mellitus type II model animal). Nature of the assay: Test Example 1-2: KK-Ay mice on high fat feed, 4 weeks; body weight, triglyceride, abdominal white fat tissue weight. Type of assay: in vivo. The note with it: 29th day; in comparison with Comparative Example 1-2 and Comparative Example 1-4; FIG. 9. The text has this: Female mice of KK-Ay/TacJc1 line (6 weeks of age, manufactured by CLEA Japan Inc.), established as a diabetes mellitus type II model animal, were divided into groups of 6 animals per group, and β-cryptoxanthin (95% in purity, manufactured by SHIKOKU YASHIMA PURE CHEMICALS CO., LTD.) and glucosylceramide (3% in purity, konnyaku ceramide manufactured by UNITIKA, LTD.) were mixed with a high fat feed, at the ratios of 0.2% and 4% respectively, and subjected to free ingestion together with water. As the control group, tests were carried out by providing the mice with a high fat feed (CLEA Rodent Diet Quick Fat, manufactured by CLEA Japan Inc) to which nothing was added (Comparative Example 1-2), the high fat feed to which 0.2% of β-cryptoxanthin alone was added (Comparative Example 1-3) and the high fat feed to which 4% of glucosylceramide alone was added (Comparative Example 1-4).
The administration was carried out for 4 weeks, and body weight and triglyceride content were measured before the administration and on the 7th, 14th, 21st and 28th days after the administration. In addition, the mice were sacrificed on the 29th day after the commencement of administration, and the visceral fats, namely abdominal white fat tissues, were collected and their weights were compared. The results are shown in FIG. 7, FIG. 8 and FIG. 9, respectively.

For assay [2] the test system is unchanged. Nature of the assay: Test Examples 2-1, 2-2, 2-3: KK-Ay mice on high fat feed, 4 weeks; body weight, blood triglyceride, visceral white fat tissue mass. Type of assay: in vivo. The following applies: for mass of visceral fat (abdominal white fat tissue): 29th day after commencement of administration; for mass of visceral fat (abdominal white fat tissue) / triglyceride content in blood: in comparison with control group; for change in body weight / triglyceride content in blood: mixed in high fat feed, 4 weeks; for change in body weight: measured on 7th, 14th, 21st, 28th days, in comparison with control group (high fat feed alone); for triglyceride content in blood: Triglyceride E-test Wako. The procedure:
Female mice of KK-Ay/TacJc1 line (6 weeks of age: manufactured by CLEA Japan Inc.), established as a diabetes mellitus type II model animal, were divided into groups of 6 animals per group, and the composition obtained in Example 1 was mixed with a high fat feed at a ratio of 4% and subjected to free ingestion together with water. The high fat feed alone was allowed to be ingested by the control group.
The administration was carried out for 4 weeks, and the body weight was measured before the administration and on the 7th, 14th, 21st and 28th days after the administration.
Simultaneously with the measurement of body weights of the mice used in Test Example 1-1, blood collection was carried out and the triglyceride content in blood was measured using Triglyceride E-test Wako (manufactured by Wako Pure Chemical Industries, Ltd.) The result is shown in FIG. 11.
The mice used in Test Example 2-1 were sacrificed on the 29th day after commencement of the administration, and collection of the visceral fat, namely white fat tissue, was carried out to compare their mass.

Assay [3] in a line: Applicant's own test of β-cryptoxanthin alone for obesity prevention / fat reduction. The following applies: no details given.

In the case of `CC1=C(/C=C/C(C)=C/C=C/C(C)=C/C=C/C=C(C)/C=C/C=C(C)/C=C/C2=C(C)C[C@@H](O)CC2(C)C)C(C)(C)CCC1` [Comparative Example 1-3, β-cryptoxanthin], the “abdominal fat tissue weight” value in assay [1] is reported as “significantly reduced”.
Take `CC1=C(/C=C/C(C)=C/C=C/C(C)=C/C=C/C=C(C)/C=C/C=C(C)/C=C/C2=C(C)C[C@@H](O)CC2(C)C)C(C)(C)CCC1` [Comparative Example 3, β-cryptoxanthin]: in assay [2], the “mass of visceral fat (abdominal white fat tissue)” value is “significantly reduced”; the “change in body weight” value is given as “significantly reduced on the 28th day”; the “triglyceride content in blood” value was “significantly reduced on the 21st and 28th days”.
Turning to `CC1=C(/C=C/C(C)=C/C=C/C(C)=C/C=C/C=C(C)/C=C/C=C(C)/C=C/C2=C(C)C[C@@H](O)CC2(C)C)C(C)(C)CCC1` [β-cryptoxanthin], the “action by individual use (obesity prevention / fat reduction)” value in assay [3] is given as “weak”.
As to “a-glycosylhesperidin [Comparative Example 4]”, in assay [2], the “mass of visceral fat (abdominal white fat tissue)” value was “reduction of the visceral fat was not found”, the “change in body weight” value was “significant difference was not found” and the “triglyceride content in blood” value is “significant difference was not found”.

(Values after US20120282358A1, “ORAL ADMINISTRATION COMPOSITION” (UNITIKA LTD., priority 2007, published 2012).)
